How the values were obtained:
Format in all cases: cell-based, human
ACT-mRNA = assay: Northern blot of ACT-mRNA, astrocytoma cells; details: Northern blot, 16 hours stimulation
Protocol: (§1) Total RNA (10 μg) was extracted from primary astrocytes and astrocytoma cells with a RNA-STAT kit (Tel-Test). RNA samples were denatured in 50% formamide/2.2 M formaldehyde/20 mM MOPS/5 mM sodium acetate/0.5 mM EDTA, pH 7.4, at 60° C. for 10 minutes, electrophoresed on 1.0% agarose-formaldehyde gels, blotted onto Hybond-N filters and immobilized by UV crosslinking and heating filters to 80° C. Filters were prehybridized for 3 hours and hybridized overnight in a solution consisting of 50% formamide, […] denatured salmon sperm DNA, 5×SSC, 0.1% sodium dodecyl sulfate and 5×Denhardt's solution. Following hybridization, filters were washed twice for a total of 1 hour in 2×SSC/0.2% sodium dodecyl sulfate at room temperature and twice each for a total of 1 hour in 0.5×SSC/0.1% sodium dodecyl sulfate at 55° C. Equal loading was verified by ethidium bromide staining, non-specific hybridization of the ACT probe to the 28S rRNA, and by standardized hybridization to the GAPDH cDNA probe as an internal standard. The APP cDNA probe corresponded to the unique internal 1 kb fragment gel purified from the 3 kb APP cDNA (Kang et al. Nature 325: 733 (1987)), the ACT cRNA probe to a PstI/SacI fragment (536-943) in the human ACT cDNA (Chandra, et al., Biochemistry 22: 5055 (1983)) and the GAPDH probe to the human GAPDH gene (Tokunaga, et al., Cancer Res. 47: 5616 (1987)).

APP-mRNA [1] = assay: Northern blot of APP-mRNA, primary astrocytes
Protocol: as §1

[2] = system: alpha-1 antichymotrypsin (ACT) mRNA; assay: Northern blot of ACT-mRNA, primary astrocytes
Protocol: as §1

APP/CAT mRNA = assay: RNase protection of APP/CAT mRNA in pSV2(APP)CAT-transfected astrocytoma cells; details: 16 hours stimulation
Protocol: Cells were lysed in 2 ml of a buffer containing 4 M guanidinium thiocyanate, 25 mM NaOac, pH 6.0, 100 mm β-mercaptoethanol. RNA was prepared after shearing the DNA and centrifuging the lysate at 31K, 23° C. for 12 hours through 5 ml of 5.7 M CsCl2 cushion. This procedure ensured that CAT mRNAs and endogenous ferritin mRNAs were purified as a pellet without contamination from plasmid DNA containing transfected CAT gene sequences. The RNA pellet was resuspended in TES buffer (10 mM Tris, pH 7.6, 1 mM EDTA, 0.5% SDS) and was extracted with an equal volume of phenol/chloroform, ethanol-precipitated and resuspended in TES buffer.
Steady-state levels of transfected CAT mRNA from astrocytoma and neuroblastoma pSV2(APP)(CAT) transfectants was characterized by RNase protection. A 261 nucleotide ^32P-labeled cRNA was transcribed from a HindIII digested DNA template isolated from the CAT gene in the pSV2CAT subclone (Rogers, et al., Nucl. Acid Res. 22: 2678 (1994); Campbell, et al., Biochem. Biophys. Res. Commun. 160: 453 (1989); Fahmy, et al., Biochem. J. 296; 175 (1993)). Labeled cRNA, antisense to the CAT gene, was hybridized to 20 μg of mRNA purified from pSV2(APP)(CAT) transfectants of astrocytoma cells. […] Kinase labeled HaeIII-digested X-174 DNA fragments were used as DNA markers for autoradiography and quantitation of CAT mRNA levels.

pSV2CAT parental vector = assay: CAT reporter activity in astrocytoma cells transfected with parental vector pSV2CAT
Protocol: Astrocytoma and neuroblastoma cells were transfected with pSV2CAT or pSV2(APP)CAT by lipofection. Briefly, lipofectamine reagent (Boehringer) was added to DMEM (without serum) and allowed to sit 30 minutes at room temperature. Plasmids (10 μg) in an equal volume of DMEM were then added, and, after sitting for 45 minutes at room temperature, the lipid/DNA solution was added to 60% confluent cells on 100×20 mm cell culture plates. After 4 hours, this solution was removed, and the cells were washed twice in DMEM (without serum). Fresh DMEM medium (containing 10% fetal calf serum) was added. At this time, treatments were administered which included: (1) 0.5 ng/ml IL-1α; (2) 0.5 ng/ml IL-1β; (3) 5 μM Fe2TF (holo-transferrin); and (4) unstimulated controls. […]
After harvesting, cells were resuspended in 100 μl 0.25 M Tris, pH 7.8, and subjected to three cycles of freezing (liquid nitrogen) and […] (37° C.) to lyse cells. […] Protein concentration was determined by a Biorad assay, and exactly 20 μg of lysate was added to a CAT reaction mix containing 50 μl 1M Tris, pH 7.8, 20 μl acetylcoenzyme-A (3.5 mg/ml) and […] ^14C-labeled chloramphenicol (25 mCi/ml). […] For quantitative analysis, the areas on the TLC plates which aligned with dots on the film were excised and the radioactivity was counted in 5 ml of scintillation cocktail (Econofluor) using a scintillation counter (Hewlett Packard). […]

APP-mRNA [3] = assay: Northern blot of APP-mRNA, astrocytoma cells; details: average of four Northern blot experiments
Protocol: as §1

Substance	ACT mRNA transcriptional change (ACT-mRNA)	APP-mRNA levels (Northern blot, densitometry) (APP-mRNA [1])	increase in ACT-mRNA levels (densitometry) [2]	decrease of steady-state level of CAT mRNA (APP/CAT mRNA; pSV2(APP)CAT transfectants, two separate transfections) [%]	effect on CAT activity, parental vector (pSV2CAT parental vector)	increase in steady-state levels of APP-mRNAs standardized to GAPDH-mRNA (APP-mRNA [3]) [%]	increase of steady-state APP/CAT mRNA level relative to unstimulated cells (APP/CAT mRNA; pSV2(APP)CAT transfected astrocytoma cells) [%]
interleukin-1α [IL-1α]	large transcriptional increase	unchanged	greater than 10 fold	50			
interleukin-1β [IL-1β]	large transcriptional increase				no effect	30	30

Reference: patent publication US6849405B2, “Translation enhancer element of the human amyloid precursor protein gene” (The Brigham and Women's Hospital, Inc., priority 1997, dated 2005)
